Results on two compounds are retold here after publication PMC7932555, “A diffusible signal factor of the intestine dictates Salmonella invasion through its direct control of the virulence activator HilD” (PLoS Pathogens, 2021).

Residue numbers refer to the chain shown, from its start.

Holding throughout (experiment): HilD half-life (degradation) assay by western blot
Holding throughout (type): cell-based
Background: A western blot detects proteins with antibodies after separation by electrophoresis.

In test [1] the target is T1, HilD (Salmonella typhimurium, UniProt P0CL08, Q290A).
T1 construct: hilD with a C-terminal 3XFLAG tag was cloned into pWSK29 under control of the tetRA promoter; expressed in transfected cells; host or cells: Salmonella Typhimurium strain carrying pWSK29-PtetRA-hilD-3XFLAG (background with chromosomal hilD, hilC and rtsA null)
T1 sequence (P0CL08 1-309 Q290A): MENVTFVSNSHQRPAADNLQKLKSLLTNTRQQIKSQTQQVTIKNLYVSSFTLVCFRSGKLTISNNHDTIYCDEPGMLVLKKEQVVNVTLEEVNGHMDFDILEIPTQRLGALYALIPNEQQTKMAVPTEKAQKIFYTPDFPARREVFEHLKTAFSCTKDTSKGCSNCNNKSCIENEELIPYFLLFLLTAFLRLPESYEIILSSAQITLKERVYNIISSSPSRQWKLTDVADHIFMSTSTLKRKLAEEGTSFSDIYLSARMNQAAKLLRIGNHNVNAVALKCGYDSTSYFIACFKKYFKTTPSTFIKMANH
The conditions noted are these: HilD Q290A-3XFLAG; 20 μM fatty acid. The method, then: (§1) The HilD half-life was assessed as previously described. Salmonella strains having plasmids with tetracycline-inducible hilD or its mutated sequence with a C-terminal 3XFLAG tag and a sipB::lacZ fusion (for invasion gene expression assessment) were grown overnight and then diluted 1:100 into LB buffered with 100 mM MOPS (pH 6.7) with appropriate antibiotics and fatty acids or control solvents. After 2 hours of growth, aliquots were collected to quantitate sipB::lacZ expression in a β-galactosidase assay. Individual cultures were then equilibrated to an OD600 of 1.0 to ensure equal density at the half-life assay beginning point. New protein production was halted by addition of a cocktail of antibiotics (rifampin, streptomycin and spectinomycin). These cultures were incubated at 37°C and aliquots were collected every 30 minutes for 2 hours. Samples were lysed in 5X sample buffer, boiled, and immunoblotted with an anti-FLAG antibody to monitor HilD.

In test [2] the target is T2, HilD (Salmonella typhimurium, UniProt P0CL08).
T2 construct: hilD with a C-terminal 3XFLAG tag was cloned into pWSK29 under control of the tetRA promoter; expressed in transfected cells; host or cells: Salmonella Typhimurium strain carrying pWSK29-PtetRA-hilD-3XFLAG (background with chromosomal hilD, hilC and rtsA null)
T2 sequence (P0CL08 1-309): T1 sequence (P0CL08 1-309 Q290A) with A290Q
Conditions: wild type HilD-3XFLAG; grown with 20 μM fatty acid for two hours, protein expression halted. The method, then:
as §1

Test [3] deals with T3, HilD (Salmonella typhimurium, UniProt P0CL08, N44A).
T3 construct: hilD with a C-terminal 3XFLAG tag was cloned into pWSK29 under control of the tetRA promoter; expressed in transfected cells; host or cells: Salmonella Typhimurium strain carrying pWSK29-PtetRA-hilD-3XFLAG (background with chromosomal hilD, hilC and rtsA null)
T3 sequence (P0CL08 1-309 N44A): T1 sequence (P0CL08 1-309 Q290A) with N44A, A290Q
The conditions noted are these: HilD N44A-3XFLAG; 20 μM fatty acid. The method, then:
as §1

In test [4] the target is T4, HilD (Salmonella typhimurium, UniProt P0CL08, K43A).
T4 construct: hilD with a C-terminal 3XFLAG tag was cloned into pWSK29 under control of the tetRA promoter; expressed in transfected cells; host or cells: Salmonella Typhimurium strain carrying pWSK29-PtetRA-hilD-3XFLAG (background with chromosomal hilD, hilC and rtsA null)
T4 sequence (P0CL08 1-309 K43A): T1 sequence (P0CL08 1-309 Q290A) with K43A, A290Q
The conditions noted are these: HilD K43A-3XFLAG; 20 μM fatty acid. The protocol: as §1

Test [5] deals with T5, HilD (Salmonella typhimurium, UniProt P0CL08, K294A).
T5 construct: hilD with a C-terminal 3XFLAG tag was cloned into pWSK29 under control of the tetRA promoter; expressed in transfected cells; host or cells: Salmonella Typhimurium strain carrying pWSK29-PtetRA-hilD-3XFLAG (background with chromosomal hilD, hilC and rtsA null)
T5 sequence (P0CL08 1-309 K294A): T1 sequence (P0CL08 1-309 Q290A) with A290Q, K294A
The conditions noted are these: HilD K294A-3XFLAG; 20 μM fatty acid. The method, then:
as §1

Test [6] addresses T6, HilD (Salmonella typhimurium, UniProt P0CL08, K293A).
T6 construct: hilD with a C-terminal 3XFLAG tag was cloned into pWSK29 under control of the tetRA promoter; expressed in transfected cells; host or cells: Salmonella Typhimurium strain carrying pWSK29-PtetRA-hilD-3XFLAG (background with chromosomal hilD, hilC and rtsA null)
T6 sequence (P0CL08 1-309 K293A): T1 sequence (P0CL08 1-309 Q290A) with A290Q, K293A
Conditions: HilD K293A-3XFLAG; 20 μM fatty acid. The protocol: as §1

Regarding `CCCCCCCCCCCCC/C=C\C(=O)O` [c2-HDA, cis-2-hexadecenoic acid], the HilD degradation entry is reported as “degraded as rapidly as wild type HilD” at HilD [1]; “Rapid degradation” on HilD [2]; “protected from degradation” at HilD [3]; “degraded as rapidly as wild type HilD” at HilD [4]; “protected from degradation” at HilD [5]; “protected from degradation” on HilD [6].
As for `CCCCCCCCCCCCC/C=C/C(=O)O` [t2-HDA, trans-2-hexadecenoic acid], the HilD degradation result at HilD [1] is “escaped degradation”; on HilD [2], “degraded”; at HilD [3], “escaped degradation”; on HilD [4] it was “escaped degradation”; on HilD [5], “rapidly degraded”; on HilD [6], “rapidly degraded”.
